{"source": "patent US5210089A", "about": "“D-rhamnono-1,5-lactone” (Monsanto Company, priority 1992, dated 1993)", "origin": "cited, not measured here", "molecular_target": "T1, Lysosomal α-mannosidase (Homo sapiens, UniProt O00754)", "T1 sequence (O00754 50-1011)": "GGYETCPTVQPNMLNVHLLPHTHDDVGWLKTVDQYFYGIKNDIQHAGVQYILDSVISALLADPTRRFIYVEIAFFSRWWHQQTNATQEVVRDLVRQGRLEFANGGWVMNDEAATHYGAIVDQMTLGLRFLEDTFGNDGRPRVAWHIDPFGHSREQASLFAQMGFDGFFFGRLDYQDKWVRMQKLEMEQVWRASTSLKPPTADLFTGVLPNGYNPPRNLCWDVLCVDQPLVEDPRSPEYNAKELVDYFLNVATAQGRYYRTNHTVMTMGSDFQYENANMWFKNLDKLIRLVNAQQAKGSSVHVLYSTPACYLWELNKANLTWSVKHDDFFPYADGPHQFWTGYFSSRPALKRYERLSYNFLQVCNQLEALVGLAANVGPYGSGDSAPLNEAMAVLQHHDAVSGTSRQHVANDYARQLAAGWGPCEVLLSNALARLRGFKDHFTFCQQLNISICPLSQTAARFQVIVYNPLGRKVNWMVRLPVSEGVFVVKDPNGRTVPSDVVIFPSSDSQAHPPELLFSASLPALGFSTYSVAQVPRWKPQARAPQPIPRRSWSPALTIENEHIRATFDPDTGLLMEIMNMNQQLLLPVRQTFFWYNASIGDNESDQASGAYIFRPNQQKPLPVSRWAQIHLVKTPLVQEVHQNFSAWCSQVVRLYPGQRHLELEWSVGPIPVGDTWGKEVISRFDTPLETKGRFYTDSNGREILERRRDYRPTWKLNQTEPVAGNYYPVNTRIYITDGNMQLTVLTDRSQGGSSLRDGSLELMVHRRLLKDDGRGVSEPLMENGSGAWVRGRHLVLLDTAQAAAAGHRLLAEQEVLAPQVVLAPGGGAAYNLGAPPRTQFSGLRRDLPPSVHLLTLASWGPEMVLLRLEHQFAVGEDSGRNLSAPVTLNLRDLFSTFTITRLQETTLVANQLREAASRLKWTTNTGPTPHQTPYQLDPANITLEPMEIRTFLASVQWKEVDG", "details": "literature; cited from earlier work"}
{"smiles": "O=C1N[C@H](CO)[C@@H](O)[C@H](O)[C@@H]1O", "note": "[Mannono-1,5-lactam (2), D-mannonolactam]", "values": [{"measurement": "Inhibition of human lysosomal α-mannosidase (in words)", "value": "powerful inhibitor"}]}
